According to article PMC12445744, “Molecular docking to homology models of human and Trypanosoma brucei ERK8 that identified ortholog-specific inhibitors” (PLOS Neglected Tropical Diseases, 2025):
Several values for one entry are separate records, joined by “and”; a condition that tells them apart may be missing. Identical values can stand only once.

Target: T1, HsERK8 (Homo sapiens, UniProt Q8TD08)
T1 construct: plasmid pGEX2T expressing the full-length hERK8 coding region; made in house; host or cells: Escherichia coli Rosetta 2 (DE3)
T1 sequence (Q8TD08 1-544): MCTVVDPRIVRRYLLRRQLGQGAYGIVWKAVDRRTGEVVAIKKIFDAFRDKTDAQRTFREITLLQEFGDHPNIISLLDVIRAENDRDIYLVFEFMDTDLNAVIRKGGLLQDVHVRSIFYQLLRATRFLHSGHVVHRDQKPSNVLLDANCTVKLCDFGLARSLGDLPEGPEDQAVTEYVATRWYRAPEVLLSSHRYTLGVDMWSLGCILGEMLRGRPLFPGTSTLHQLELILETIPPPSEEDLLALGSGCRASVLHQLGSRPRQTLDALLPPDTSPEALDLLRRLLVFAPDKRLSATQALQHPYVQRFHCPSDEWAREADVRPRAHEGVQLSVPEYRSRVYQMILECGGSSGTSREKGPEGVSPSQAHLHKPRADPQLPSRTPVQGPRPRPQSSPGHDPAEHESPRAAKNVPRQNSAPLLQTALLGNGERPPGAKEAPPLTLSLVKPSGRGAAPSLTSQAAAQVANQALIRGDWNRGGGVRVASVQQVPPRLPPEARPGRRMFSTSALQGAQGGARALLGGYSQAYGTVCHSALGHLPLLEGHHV
Test: Luciferase-based kinase inhibition assay (ATP luminescence), GST-tagged HsERK8 with MBP substrate
Format: biochemical
Settings: for raw luminescence, HsERK8: sheet Kinase_glo_080924_IFPS (2), replicate wells, listed as Ida
Procedure: Escherichia coli strain Rosetta 2 (DE3) (Cat# 71397, MilliporeSigma, Burlington, MA) was transformed with the plasmid pGEX2T expressing the full-length hERK8 coding region or pGSTAg expressing the full-length TbERK8 coding region. One liter of Terrific Broth media containing 100 μg/ml Ampicillin and 30 μg/ml chloramphenicol in 2 L baffled flasks was inoculated with 25 mL from an overnight culture of Rosetta 2 strains harboring either the pGEX2T-hERK8 or pGSTAg-TbERK8 plasmid. Two baffled flasks were inoculated with each overnight strain and incubated and shaken at 175 RPM in a New Brunswick Innova 44R Incubator Shaker (Fischer Scientific, Pittsburgh, PA) at 37 °C until the cultures reached an O.D.600 of 0.94. Once the cultures in the flask reached the target O.D.600, the flasks were cooled to 4 °C in an ice water bath. The cooled cultures were induced by adding isopropyl β-D-1-thiogalactopyranoside (IPTG) to a final concentration of 0.1 mM and shaken at 16 °C for 16 hours at 175 RPM in a New Brunswick Innova 44R Incubator Shaker (Fischer Scientific, Pittsburgh, PA). On the next day, the cultures were pelleted by centrifugation at 9000 xg in a JLA 10.500 rotor (Beckman Coulter; Brea, CA), and the media was decanted. The pellet was flash-frozen in liquid nitrogen and then thawed on ice. The thawed pellet was resuspended in lysis buffer (25 mM Tris, 75 mM NaCl, 0.5% TritonX-100 and 0.5% Nonidet P-40, 1 mM phenylmethanesulfonyl fluoride, 1 mM benzamidine⋅HCl) and lysed using a microfluidizer M-110P from Microfluidics (Westwood, MA). The crude lysates were clarified by centrifugation at 140,000 xg in a 45Ti rotor (Beckman Coulter, Brea, CA) for 30 min at 4°C. The clarified lysate was loaded by gravity to a 3 mL glutathione agarose resin column (Cat# G-250–10, GOLDBIO, St. Louis, MO) formed in a 1.5 × 20 cm glass chromatography column (Cat# 7371522, Bio-Rad, Hercules, CA). The column was washed with 30 mL of PBS (pH 7.4) containing 1 mM DTT. Elution buffer (50 mM Tris buffer pH 8.0 containing 10 mM reduced glutathione and 1 mM DTT was added to the washed column), and 1 mL fractions were collected by gravity and examined by SDS-PAGE stained by Coomassie dye. Peak fractions pooled from the elution were dialyzed (4x 1:500 dilutions) in kinase buffer (30 mM Tris, pH 7.4, 10 mM MgCl2, 1 mM DTT, 5% glycerol).
We performed kinase assays in buffer K (30 mM Tris pH 7.4, 10 mM MgCl2, 1 mM DTT, 5% glycerol, 50 μM ATP, and 0.1 mg/mL BSA) at 30°C for 30 min in 30 μL reactions. GST-tagged HsERK8 and TbERK8 were tested using myelin basic protein (MBP) (Cat# 13–110, Millipore, Darmstadt, Germany) as the substrate at increasing concentrations to determine the optimal activity for the assay. ATP consumption was determined by adding equal volumes of the kinase assay reagent (Promega, Cat# V5601, Madison, WI) following the manufacturer’s protocol. Luminescence was measured using the microplate reader (SpectraMax L, Molecular Devices, Sunnyvale, CA).
These compounds were screened for kinase inhibition utilizing a luciferase-based assay. Briefly, the kinases were tested using MBP as the substrate at a 14-fold molar excess in 384-well flat-bottom white plates (BRANDTECH Scientific, Cat# 781681, Essex, CT). These compounds were tested at concentrations ranging from […] to 150 nM. The kinases plus MBP substrate reactions were incubated with each inhibitor for 30 minutes at 30°C. Equal volumes of kinase assay mix Promega (Cat# V5601, Madison, WI) were added to the kinase/inhibitor reaction after 30 minutes, following the manufacturer’s protocol. ATP luminescence was measured using a microplate reader (SpectraMax L, Molecular Devices, Sunnyvale, CA). IC50 values were calculated from assays done in triplicate by fitting the data using Prism 8.1.1 (GraphPad).

CC(=O)[C@]1(O)Cc2c(O)c3c(c(O)c2[C@@H](O[C@H]2C[C@H](N)[C@H](O)[C@H](C)O2)C1)C(=O)c1ccccc1C3=O [Idarubicin]
raw luminescence, HsERK8 (0.00015 mM compound): 5033.01 RLU and 5464.22 RLU and 4680.41 RLU
raw luminescence, HsERK8 (0.00061 mM compound): 4929.7 RLU and 5104.88 RLU and 5152.04 RLU
raw luminescence, HsERK8 (0.00244 mM compound): 4819.65 RLU and 4756.77 RLU and 4179.58 RLU
raw luminescence, HsERK8 (0.00977 mM compound): 4606.3 RLU and 4691.64 RLU and 4170.6 RLU
raw luminescence, HsERK8 (0.03906 mM compound): 4799.44 RLU and 4835.38 RLU and 4925.21 RLU
raw luminescence, HsERK8 (0.15625 mM compound): 4702.87 RLU and 5131.83 RLU and 4550.15 RLU
raw luminescence, HsERK8 (0.62500 mM compound): 4750.03 RLU and 4873.56 RLU and 4527.69 RLU
raw luminescence, HsERK8 (2.50000 mM compound): 3723.67 RLU and 3768.58 RLU and 3368.82 RLU
raw luminescence, HsERK8 (10.00000 mM compound, signal = ATP left): 988.186 RLU and 1334.05 RLU and 1307.1 RLU
inhibitory effect on kinase activity of HsERK8 (concentrations below 4.0 x10^-5 M (above this the red compound blocked luminescence)): no detectible (n/d) inhibitory effect
